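A five-concentration, 48-hour dose response in 96-well plates underlies each endpoint, interpolated linearly between surrounding concentrations. TGI denotes the concentration required for complete inhibition of growth.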

The first assay relates to RXF 393 renal. The experiment in a line: DTP human tumour cell line panel, 48 h.
A word on the TGI: it is the concentration at which net growth stops. High values mean less potent growth arrest, low ones more potent growth arrest. `O=C1c2ccccc2C(O)(O)C1(O)C1(O)C(=O)c2ccccc2C1(O)O` (stereo unspecified) came in with a TGI of 81.8 µM.
On the same count and under the same terms, the result for `CC[C@]1(Cc2ccc(OC)c(OC)c2)C=[N+]([O-])O[C@H](OC2CCCC2(c2ccccc2)c2ccccc2)[C@@H]1OC(=O)c1ccccc1` (stereo partly specified) reads above 25.9 µM.
Consider `O=C1/C(=C\c2ccc(O)cc2)CCC/C1=C/c1ccc(Cl)c(Cl)c1`, for which the TGI amounted to 5.8 µM.

The next assay relates to SK-OV-3 ovarian. Kind of assay: DTP human tumour cell line panel, 48 h.
With `COc1cc2c(c(O)c1OC)-c1c(cc(OC)c(OC)c1OC)CC(C)C(C)C2` (stereo unspecified), the TGI is above 100 µM.
Same read-out and setting: for `O=C1c2ccccc2C(O)(O)C1(O)C1(O)C(=O)c2ccccc2C1(O)O` (stereo unspecified) the value was above 100 µM; for `CC[C@]1(Cc2ccc(OC)c(OC)c2)C=[N+]([O-])O[C@H](OC2CCCC2(c2ccccc2)c2ccccc2)[C@@H]1OC(=O)c1ccccc1` (stereo partly specified), above 100 µM; for `O=C1/C(=C\c2ccc(O)cc2)CCC/C1=C/c1ccc(Cl)c(Cl)c1`, 17 µM.

In a further assay the test system is NCI-H23 lung. The experiment in a line: DTP human tumour cell line panel, 48 h.
As to `COc1cc2c(c(O)c1OC)-c1c(cc(OC)c(OC)c1OC)CC(C)C(C)C2` (stereo unspecified), the TGI was above 100 µM.
As for `O=C1c2ccccc2C(O)(O)C1(O)C1(O)C(=O)c2ccccc2C1(O)O` (stereo unspecified), the TGI stood at 38.2 µM. That is a double-digit micromolar value.
For the molecule `CC[C@]1(Cc2ccc(OC)c(OC)c2)C=[N+]([O-])O[C@H](OC2CCCC2(c2ccccc2)c2ccccc2)[C@@H]1OC(=O)c1ccccc1` (stereo partly specified), the TGI was above 45.9 µM.
On to `O=C1/C(=C\c2ccc(O)cc2)CCC/C1=C/c1ccc(Cl)c(Cl)c1`, for which the TGI is 10.1 µM.

In a further assay the test system is MDA-MB-231 breast. The experiment in a line: DTP human tumour cell line panel, 48 h.
As to `COc1cc2c(c(O)c1OC)-c1c(cc(OC)c(OC)c1OC)CC(C)C(C)C2` (stereo unspecified), the TGI is above 100 µM.
On to `O=C1c2ccccc2C(O)(O)C1(O)C1(O)C(=O)c2ccccc2C1(O)O` (stereo unspecified), for which the TGI is above 100 µM.
The same measure, in the same setting: the result for `CC[C@]1(Cc2ccc(OC)c(OC)c2)C=[N+]([O-])O[C@H](OC2CCCC2(c2ccccc2)c2ccccc2)[C@@H]1OC(=O)c1ccccc1` (stereo partly specified) reads above 100 µM.
The same measure, in the same setting: the result for `O=C1/C(=C\c2ccc(O)cc2)CCC/C1=C/c1ccc(Cl)c(Cl)c1` reads 7.55 µM.

For another assay, the system named is SK-MEL-28 melanoma. Kind of assay: DTP human tumour cell line panel, 48 h.
With `COc1cc2c(c(O)c1OC)-c1c(cc(OC)c(OC)c1OC)CC(C)C(C)C2` (stereo unspecified), the TGI is above 100 µM.
Still for that read-out and setting: for `O=C1c2ccccc2C(O)(O)C1(O)C1(O)C(=O)c2ccccc2C1(O)O` (stereo unspecified) the value was above 100 µM.
Same read-out and setting: the result for `CC[C@]1(Cc2ccc(OC)c(OC)c2)C=[N+]([O-])O[C@H](OC2CCCC2(c2ccccc2)c2ccccc2)[C@@H]1OC(=O)c1ccccc1` (stereo partly specified) reads above 100 µM.
`O=C1/C(=C\c2ccc(O)cc2)CCC/C1=C/c1ccc(Cl)c(Cl)c1` returned a TGI of 13.9 µM.

In a further assay the test system is OVCAR-3 ovarian. The experiment in a line: DTP human tumour cell line panel, 48 h.
The molecule `COc1cc2c(c(O)c1OC)-c1c(cc(OC)c(OC)c1OC)CC(C)C(C)C2` (stereo unspecified) displayed a TGI above 100 µM.
The same measure, in the same setting: the result for `O=C1c2ccccc2C(O)(O)C1(O)C1(O)C(=O)c2ccccc2C1(O)O` (stereo unspecified) reads 65.9 µM.
With `CC[C@]1(Cc2ccc(OC)c(OC)c2)C=[N+]([O-])O[C@H](OC2CCCC2(c2ccccc2)c2ccccc2)[C@@H]1OC(=O)c1ccccc1` (stereo partly specified), the TGI stood at 13.7 µM.
On the same count and under the same terms, the result for `O=C1/C(=C\c2ccc(O)cc2)CCC/C1=C/c1ccc(Cl)c(Cl)c1` reads 9.73 µM.

Another assay relates to HOP-62 NSCLC. Kind of assay: DTP human tumour cell line panel, 48 h.
In turn, `COc1cc2c(c(O)c1OC)-c1c(cc(OC)c(OC)c1OC)CC(C)C(C)C2` (stereo unspecified) registered a TGI above 100 µM.
Molecule `O=C1c2ccccc2C(O)(O)C1(O)C1(O)C(=O)c2ccccc2C1(O)O` (stereo unspecified) yielded a TGI of 54.1 µM.
`CC[C@]1(Cc2ccc(OC)c(OC)c2)C=[N+]([O-])O[C@H](OC2CCCC2(c2ccccc2)c2ccccc2)[C@@H]1OC(=O)c1ccccc1` (stereo partly specified) had a TGI of 62.3 µM.
The same measure, in the same setting: the result for `O=C1/C(=C\c2ccc(O)cc2)CCC/C1=C/c1ccc(Cl)c(Cl)c1` reads 16.1 µM.

In the next assay the test system is CCRF-CEM leukemia. Kind of assay: DTP human tumour cell line panel, 48 h.
In turn, `COc1cc2c(c(O)c1OC)-c1c(cc(OC)c(OC)c1OC)CC(C)C(C)C2` (stereo unspecified) yielded a TGI of 62.1 µM. In other words, the double-digit micromolar range.
Still for that read-out and setting: for `O=C1c2ccccc2C(O)(O)C1(O)C1(O)C(=O)c2ccccc2C1(O)O` (stereo unspecified) the value was 44.7 µM; for `CC[C@]1(Cc2ccc(OC)c(OC)c2)C=[N+]([O-])O[C@H](OC2CCCC2(c2ccccc2)c2ccccc2)[C@@H]1OC(=O)c1ccccc1` (stereo partly specified), above 30.1 µM; for `O=C1/C(=C\c2ccc(O)cc2)CCC/C1=C/c1ccc(Cl)c(Cl)c1`, 1.2 µM.

In a further assay the test system is SF-539 CNS. The experiment in a line: DTP human tumour cell line panel, 48 h.
`COc1cc2c(c(O)c1OC)-c1c(cc(OC)c(OC)c1OC)CC(C)C(C)C2` (stereo unspecified) had a TGI above 100 µM.
On the same count and under the same terms, for `O=C1c2ccccc2C(O)(O)C1(O)C1(O)C(=O)c2ccccc2C1(O)O` (stereo unspecified) the value was above 100 µM; for `CC[C@]1(Cc2ccc(OC)c(OC)c2)C=[N+]([O-])O[C@H](OC2CCCC2(c2ccccc2)c2ccccc2)[C@@H]1OC(=O)c1ccccc1` (stereo partly specified), above 100 µM.

For the next assay, the system named is HCT-15 colon. Kind of assay: DTP human tumour cell line panel, 48 h.
Molecule `COc1cc2c(c(O)c1OC)-c1c(cc(OC)c(OC)c1OC)CC(C)C(C)C2` (stereo unspecified) registered a TGI above 100 µM.
`O=C1c2ccccc2C(O)(O)C1(O)C1(O)C(=O)c2ccccc2C1(O)O` (stereo unspecified) came in with a TGI of 44.1 µM.
On the same count and under the same terms, for `CC[C@]1(Cc2ccc(OC)c(OC)c2)C=[N+]([O-])O[C@H](OC2CCCC2(c2ccccc2)c2ccccc2)[C@@H]1OC(=O)c1ccccc1` (stereo partly specified) the value was above 100 µM; for `O=C1/C(=C\c2ccc(O)cc2)CCC/C1=C/c1ccc(Cl)c(Cl)c1`, 9.75 µM.

The test system of a further assay is SNB-75 CNS. The experiment in a line: DTP human tumour cell line panel, 48 h.
For `COc1cc2c(c(O)c1OC)-c1c(cc(OC)c(OC)c1OC)CC(C)C(C)C2` (stereo unspecified), the TGI is above 100 µM.
In turn, `O=C1c2ccccc2C(O)(O)C1(O)C1(O)C(=O)c2ccccc2C1(O)O` (stereo unspecified) yielded a TGI of 72.3 µM.
`CC[C@]1(Cc2ccc(OC)c(OC)c2)C=[N+]([O-])O[C@H](OC2CCCC2(c2ccccc2)c2ccccc2)[C@@H]1OC(=O)c1ccccc1` (stereo partly specified): the TGI is above 37.9 µM.
On to `O=C1/C(=C\c2ccc(O)cc2)CCC/C1=C/c1ccc(Cl)c(Cl)c1`, for which the TGI amounted to 11.8 µM.

Another assay concerns SW-620 colon. Kind of assay: DTP human tumour cell line panel, 48 h.
On to `COc1cc2c(c(O)c1OC)-c1c(cc(OC)c(OC)c1OC)CC(C)C(C)C2` (stereo unspecified), for which the concentration for total growth inhibition (TGI) is above 100 µM.
On the same count and under the same terms, the result for `O=C1c2ccccc2C(O)(O)C1(O)C1(O)C(=O)c2ccccc2C1(O)O` (stereo unspecified) reads above 100 µM; that for `CC[C@]1(Cc2ccc(OC)c(OC)c2)C=[N+]([O-])O[C@H](OC2CCCC2(c2ccccc2)c2ccccc2)[C@@H]1OC(=O)c1ccccc1` (stereo partly specified), above 100 µM.
Regarding `O=C1/C(=C\c2ccc(O)cc2)CCC/C1=C/c1ccc(Cl)c(Cl)c1`, the TGI was found to be 12 µM.

Another assay concerns MOLT-4 leukemia. The experiment in a line: DTP human tumour cell line panel, 48 h.
In turn, `COc1cc2c(c(O)c1OC)-c1c(cc(OC)c(OC)c1OC)CC(C)C(C)C2` (stereo unspecified) displayed a TGI of 43.4 µM.
Still for that read-out and setting: the result for `CC[C@]1(Cc2ccc(OC)c(OC)c2)C=[N+]([O-])O[C@H](OC2CCCC2(c2ccccc2)c2ccccc2)[C@@H]1OC(=O)c1ccccc1` (stereo partly specified) reads above 21.9 µM; that for `O=C1/C(=C\c2ccc(O)cc2)CCC/C1=C/c1ccc(Cl)c(Cl)c1`, 5.8 µM.

The test system of the next assay is DU-145 prostate. The experiment in a line: DTP human tumour cell line panel, 48 h.
Regarding `COc1cc2c(c(O)c1OC)-c1c(cc(OC)c(OC)c1OC)CC(C)C(C)C2` (stereo unspecified), the TGI is above 100 µM.
Still for that read-out and setting: for `O=C1c2ccccc2C(O)(O)C1(O)C1(O)C(=O)c2ccccc2C1(O)O` (stereo unspecified) the value was above 100 µM.
Still for that read-out and setting: for `CC[C@]1(Cc2ccc(OC)c(OC)c2)C=[N+]([O-])O[C@H](OC2CCCC2(c2ccccc2)c2ccccc2)[C@@H]1OC(=O)c1ccccc1` (stereo partly specified) the value was above 56.3 µM.
`O=C1/C(=C\c2ccc(O)cc2)CCC/C1=C/c1ccc(Cl)c(Cl)c1` showed a TGI of 9.8 µM. This counts as single-digit micromolar.

Another assay has as its system NCI-H460 lung. The experiment in a line: DTP human tumour cell line panel, 48 h.
`COc1cc2c(c(O)c1OC)-c1c(cc(OC)c(OC)c1OC)CC(C)C(C)C2` (stereo unspecified) gave a TGI above 100 µM.
Same read-out and setting: the result for `O=C1c2ccccc2C(O)(O)C1(O)C1(O)C(=O)c2ccccc2C1(O)O` (stereo unspecified) reads 37.3 µM.
On the same count and under the same terms, for `CC[C@]1(Cc2ccc(OC)c(OC)c2)C=[N+]([O-])O[C@H](OC2CCCC2(c2ccccc2)c2ccccc2)[C@@H]1OC(=O)c1ccccc1` (stereo partly specified) the value was above 100 µM.
